Test system: MV-4-11 cells
Experiment: Gene expression microarray analysis (Affymetrix PrimeView) and GSEA
Assay type: cell-based, human
Conditions: MV-4-11, 48 hours, 1 μM each

Nc1ncn([C@@H]2O[C@H](CO)[C@@H](O)[C@H]2O)c(=O)n1 [azacitidine]
genes down-regulated greater than 2-fold relative to vehicle control: 12 genes

From PMC5218480 (PLoS ONE, 2017)
